Data from PubChem BioAssay (NCI).
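96-well plates; 48 h exposure; 5 concentrations. Endpoints by linear interpolation between flanking doses. Not reached: highest tested concentration assigned. Here, GI50 denotes the concentration required for 50% inhibition of growth. TGI is the concentration that stops growth completely.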

What was measured:
Assay in all cases: growth of human tumour cells (NCI), 48 h
[1] = test system: HOP-62 NSCLC
[2] = test system: KM12 colon
[3] = test system: MOLT-4 leukemia
[4] = test system: CAKI-1 renal
[5] = test system: ACHN renal
[6] = test system: BT-549 breast
[7] = test system: TK-10 renal
[8] = test system: NCI-H522 lung
[9] = test system: HT29 colon
[10] = test system: MALME-3M melanoma
[11] = test system: SK-MEL-2 melanoma
[12] = test system: COLO 205 colon
[13] = test system: SN12C renal
[14] = test system: SNB-19 CNS
[15] = test system: NCI-H460 lung
[16] = test system: SF-268 CNS
[17] = test system: T-47D breast
[18] = test system: RPMI-8226 leukemia
[19] = test system: SK-MEL-28 melanoma
[20] = test system: K-562 leukemia
[21] = test system: PC-3 prostate
[22] = test system: IGROV1 ovarian
[23] = test system: A498 renal
[24] = test system: SNB-75 CNS
[25] = test system: SK-OV-3 ovarian
[26] = test system: NCI-H226 lung
[27] = test system: MDA-MB-231 breast
[28] = test system: UACC-257 melanoma
[29] = test system: HCC-2998 colon
[30] = test system: HCT-116 colon
[31] = test system: HL-60(TB) leukemia
[32] = test system: DU-145 prostate
[33] = test system: UACC-62 melanoma
[34] = test system: A549 NSCLC
[35] = test system: NCI-H23 lung
[36] = test system: LOX IMVI melanoma
[37] = test system: HS 578T breast
[38] = test system: 786-0 renal
[39] = test system: M14 melanoma
[40] = test system: OVCAR-3 ovarian
[41] = test system: U251 CNS
[42] = test system: EKVX NSCLC
[43] = test system: OVCAR-8 ovarian
[44] = test system: HOP-92 NSCLC
[45] = test system: NCI/ADR-RES ovarian
[46] = test system: CCRF-CEM leukemia
[47] = test system: SF-539 CNS
[48] = test system: HCT-15 colon
[49] = test system: MCF7 breast
[50] = test system: RXF 393 renal
[51] = test system: OVCAR-4 ovarian
[52] = test system: UO-31 renal
[53] = test system: SR leukemia
[54] = test system: SF-295 CNS
[55] = test system: OVCAR-5 ovarian
[56] = test system: SK-MEL-5 melanoma
[57] = test system: MDA-MB-435
[58] = test system: SW-620 colon

CN(C)CCCNC1=C(Cl)C(=O)c2ccccc2C1=O
GI50 [1]: 6.23 µM
TGI [1]: 17.5 µM
GI50 [2]: 5.93 µM
TGI [2]: 19.3 µM
GI50 [3]: 3.02 µM
TGI [3]: 8.27 µM
GI50 [4]: 7.14 µM
TGI [4]: 20.7 µM
GI50 [5]: 4.96 µM
TGI [5]: 9.51 µM
GI50 [6]: 2.14 µM
TGI [6]: 4.96 µM
GI50 [7]: 15.4 µM
TGI [7]: 29 µM
GI50 [8]: 2.03 µM
TGI [8]: 3.83 µM
GI50 [9]: 2.5 µM
TGI [9]: 5.25 µM
GI50 [10]: 2.06 µM
TGI [10]: 3.77 µM
GI50 [11]: 2.11 µM
TGI [11]: 4.15 µM
GI50 [12]: 1.9 µM
TGI [12]: 3.45 µM
GI50 [13]: 1.62 µM
TGI [13]: 3.12 µM
GI50 [14]: 1.76 µM
TGI [14]: 3.28 µM
GI50 [15]: 8.61 µM
TGI [15]: 25.2 µM
GI50 [16]: 4.88 µM
GI50 [17]: 2.94 µM
TGI [17]: 9.33 µM
GI50 [18]: 4.25 µM
TGI [18]: 21.4 µM
GI50 [19]: 1.88 µM
TGI [19]: 3.41 µM
GI50 [20]: 2.47 µM
TGI [20]: 6.03 µM
GI50 [21]: 3.12 µM
TGI [21]: 13.2 µM
GI50 [22]: 2.01 µM
TGI [22]: 4.12 µM
GI50 [23]: 12.7 µM
TGI [23]: 25.4 µM
GI50 [24]: 1.36 µM
TGI [24]: 2.67 µM
GI50 [25]: 15 µM
TGI [25]: 28.3 µM
GI50 [26]: 5.38 µM
TGI [26]: 10.6 µM
GI50 [27]: 1.79 µM
TGI [27]: 3.94 µM
GI50 [28]: 1.82 µM
TGI [28]: 3.25 µM
GI50 [29]: 1.96 µM
TGI [29]: 3.45 µM
GI50 [30]: 2.28 µM
TGI [30]: 6.04 µM
GI50 [31]: 2.54 µM
TGI [31]: 5.84 µM
GI50 [32]: 1.92 µM
TGI [32]: 3.64 µM
GI50 [33]: 1.7 µM
TGI [33]: 3.19 µM
GI50 [34]: 16.1 µM
TGI [34]: 32.5 µM
GI50 [35]: 1.74 µM
TGI [35]: 3.87 µM
GI50 [36]: 1.61 µM
TGI [36]: 3.17 µM
GI50 [37]: 2.2 µM
TGI [37]: 7.02 µM
GI50 [38]: 11.3 µM
TGI [38]: 24.2 µM
GI50 [39]: 1.83 µM
TGI [39]: 3.38 µM
GI50 [40]: 1.69 µM
TGI [40]: 3.17 µM
GI50 [41]: 1.83 µM
TGI [41]: 3.27 µM
GI50 [42]: 1.72 µM
TGI [42]: 3.41 µM
GI50 [43]: 2.08 µM
TGI [43]: 4.39 µM
GI50 [44]: 2.86 µM
TGI [44]: 12.3 µM
GI50 [45]: 7.93 µM
TGI [45]: 31.8 µM
GI50 [46]: 3.9 µM
TGI [46]: 14.4 µM
GI50 [47]: 12.8 µM
TGI [47]: 27 µM
GI50 [48]: 1.76 µM
TGI [48]: 4.09 µM
GI50 [49]: 1.61 µM
TGI [49]: 3.53 µM
GI50 [50]: 1.69 µM
TGI [50]: 3.14 µM
GI50 [51]: 1.62 µM
TGI [51]: 2.98 µM
GI50 [52]: 12.4 µM
TGI [52]: 27 µM
GI50 [53]: 2.8 µM
TGI [53]: 7.61 µM
GI50 [54]: 7.23 µM
TGI [54]: 21.4 µM
GI50 [55]: 4.27 µM
TGI [55]: 9.63 µM
GI50 [56]: 1.6 µM
TGI [56]: 2.96 µM
GI50 [57]: 1.9 µM
TGI [57]: 3.64 µM
GI50 [58]: 1.69 µM
TGI [58]: 3.42 µM
